Experimental data: patent publication US20250304549A1, “HYDROXYAMIDE DERIVATIVE AND USE THEREOF” (SICHUAN HUIYU PHARMACEUTICAL CO., LTD., priority 2022, published 2025)
Structures can show the parent of a compound that is named as a salt.

Experiments:
LSD1 = LSD1 (Homo sapiens (Human), UniProt O60341); assay: In vitro enzyme inhibition assay - LSD1 (HTRF); type: biochemical
Procedure: 1. In Vitro Enzyme Inhibition Assay—LSD1
Initially, a master solution of 90 μM test compound (dissolved in DMSO) was prepared and sequentially diluted with DMSO in a 5-fold concentration gradient to yield a total of 9 concentrations of the compound working solution 1 (90×). Subsequently these 9 concentrations of working solution 1 were sequentially diluted by a 30-fold concentration gradient, i.e., 2 μL of working solution 1 was aspirated and added to 58 μL of Buffer, mixed on a vortex mixer with sufficient shaking to yield 9 concentrations of the screening test compound working solution 2 (3×). […] The mixture was incubated at room temperature for 15 minutes. […] Afterward, 2 μL of a termination solution (containing 5.4 mM 2-PCPA) was added to each well, mixed evenly, and incubated for another 15 minutes. Finally 4 μL of a pre-mixed antibody solution of Eu-anti H3K4 (PerkinElmer, TRF0404-D) and allophycocyanin (Prozyme, PJ27S) (1:1) was added to each well, mixed evenly, and incubated for 60 minutes. […] The inhibition rate was calculated through the following formula: […]
(§1) Note: ‘Negative’ refers to the group without the inhibitor; ‘Blank’ refers to the group without the enzyme.
(§2) The IC50 value was calculated by fitting the inhibition rate by GraphPad Prism software, employing log (inhibitor) vs. response-Variable Slope (four parameters) model.

pan-HDAC = assay: In vitro enzyme inhibition assay - HDAC (HDAC-Glo I/II), pan-HDAC; type: biochemical
Procedure: 2. In Vitro Enzyme Inhibition Assay—HDAC
The effect of the compound on the enzymatic activity of pan-HDAC and two isoforms (HDAC1 and HDAC8) was examined using the HDAC-Glo I/II Assay and Screening System assay to assess the level of inhibition of HDAC protease activity and selectivity in each isoform. The proteins and detection reagents were from the HDAC-Glo™ I/II Assay and Screening System (Promega). A 1 mM stock solution of the compound was prepared in DMSO and diluted in a 5-fold gradient to create a series of 8 concentrations, and a specific volume of the highest concentration was diluted 25 times with HDAC Buffer to obtain 4× working solution of the compound. […] The 384-well plate was then read on a multifunctional microplate reader, with the Luminescence channel selected to record Luminescence values (RLU). The inhibition rate was calculated using the following formula: […]
as §1, §2

NCI-H1417 cells = assay: In vitro cell inhibition assay - H1417 cell proliferation (CellTiter-Glo); type: cell-based; conditions: Homo sapiens, NCI-H1417, H1417 small cell lung cancer cell proliferation
Procedure: 3. In Vitro Cell Inhibition Assay—H1417 Cell Proliferation
The inhibitory effect of the compounds on cell proliferation was assessed by detecting the number of viable cells using the CellTiter-Glo® reagent. […] The compounds were sequentially diluted in a 5-fold concentration gradient with DMSO to obtain 8 different concentrations o. These were diluted with BEGM (containing 10% FBS) cell culture medium to obtain the compound working solution (2×), which was added to the cell supernatant at 100 μL per well. The incubation continued for 7 days at 37° C., 5% CO2. The plate was then removed and equilibrated to room temperature (25° C.) along with the CellTiter-Glo® mixing reagent for 10-30 minutes. After centrifugation, 100 μL of the culture medium was carefully aspirated from each well, and 85 μL of CellTiter-Glo® reagent was added. The cells were thoroughly mixed with the CellTiter-Glo® mixing reagent using a microplate shaker for 2 min. and then incubated at room temperature for 10 min. The 96-well plate was subsequently placed on a multifunctional microplate reader to record the Luminescence values (RLU). • The inhibition rate was calculated using the following formula: […]
(§3) Note: ‘Negative’ refers to the group without inhibitors; ‘Blank’ refers to the group without cells.
(§4) The IC50 value was determined by fitting the inhibition rate by GraphPad Prism software.

NCI-H69 cells = assay: In vitro cell inhibition assay - NCI-H69 cell proliferation (CellTiter-Glo); type: cell-based; conditions: Homo sapiens, NCI-H69, H69 small cell lung cancer cell proliferation
Procedure: 4. In Vitro Cell Inhibition Assay—NCI-H69 Cell Proliferation
The inhibitory effect of the compounds on cell proliferation was assessed by detecting the number of viable cells using the CellTiter-Glo® reagent. NCI-H69 cells in the logarithmic growth phase were collected and inoculated into transparent bottom 96-well plates at a density 1×10^3 cells per well with 100 μL medium, and incubated at 37° C., 5% CO2 overnight. The compounds were sequentially diluted in a 5-fold concentration gradient with DMSO to obtain 8 different concentrations These were then diluted with RPMI-640 (containing 20% FBS) cell culture medium to obtain the compounds working solution (2×), which was added to the cell supernatant at 100 μL per well. The incubation continued for 7 days at 37° C., 5% CO2. The plate was then removed and equilibrated to room temperature (25° C.) along with the CellTiter-Glo® mixing reagent for 10-30 minutes. After centrifugation at 1200 rpm for 5 minutes, 120 μL of the culture medium was carefully aspirated from each well, and 60 μL of CellTiter-Glo® reagent was added. The cells were thoroughly mixed with the CellTiter-Glo® mixing reagent using a microplate shaker for 2 min. and then incubated at room temperature for 10 min. The 96-well plate was subsequently placed on a multifunctional microplate reader to record the Luminescence values (RLU).
The inhibition rate was calculated using the following formula: […]
as §3, §4

IC50 (LSD1)	IC50 (pan-HDAC)	IC50 (NCI-H1417 cells)	IC50 (NCI-H69 cells)	SMILES
0.02 nM	24.8 nM	2.31 nM	99.2 nM	CC(C)(O)Cn1nnc2cc(-c3cnc(N4CCC(NCc5ccc(/C=C/C(=O)NO)cc5)CC4)c(C#N)c3-c3ccc(C#N)c(F)c3)c(F)c(F)c21 [Example 226, (E)-3-(4-(((1-(3-Cyano-4-(4-cyano-3-fluorophenyl)-5-(6,7-difluoro-1-(2-hydroxy-2-methylpropyl)-1H-benzo[d][1,2,3]triazol-5-yl)pyridin-2-yl)piperidin-4-yl)amino)methyl)phenyl-N-hydroxyacrylamide formate]
0.9 nM	24.3 nM	91.7 nM	84.8 nM	COc1ccc(-c2cnc(N3CCC(CNCc4ccc(/C=C/C(=O)NO)cc4)C3)c(C#N)c2-c2ccc(C#N)c(F)c2)cc1O (stereo not shown) [Example 228, (E)-3-(4-((((1-(3-Cyano-4-(4-cyano-3-fluorophenyl)-5-(3-hydroxy-4-methoxyphenyl)pyridin-2-yl)pyrrolidin-3-yl)methyl)amino)methyl)phenyl)-N-hydroxyacrylamide hydrochloride]
0.88 nM	30.8 nM	9.36 nM	529 nM	CC1(NCc2ccc(/C=C/C(=O)NO)cc2)CCN(c2ncc(-c3ccc(OCC4(O)CC4)c(O)c3)c(-c3ccc(C#N)c(F)c3)c2C#N)CC1 [Example 229, (E)-3-(4-(1-(3-cyano-4-(4-cyano-3-fluorophenyl)-5-(3-hydroxy-4-((1-hydroxycyclopropyl)methoxy)phenyl)pyridin-2-yl)-4-methylpiperidin-4-yl)amino)methyl) phenyl)-N-hydroxyacrylamide formate]
1.45 nM	10.3 nM	4.67 nM	77 nM	COc1ccc(-c2cnc(N3CCC(NCc4ncc(/C=C/C(=O)NO)cc4F)CC3)c(C#N)c2-c2ccc(C#N)c(F)c2)cc1O [Example 230, (E)-3-(6-(((1-(3-Cyano-4-(4-cyano-3-fluorophenyl)-5-(3-hydroxy-4-methoxyphenyl)pyridin-2-yl)piperidin-4-yl)amino)methyl)-5-fluoropyridin-3-yl)-N-hydroxyacrylamide formate]
2.38 nM	8.01 nM	2.35 nM	19.2 nM	CC(NC1CCN(c2ncc(-c3ccc(OCC(C)(C)O)c(O)c3)c(-c3ccc(C#N)c(F)c3)c2C#N)CC1)c1ccc(/C=C/C(=O)NO)cc1 (stereo not shown) [Example 235, (E)-3-(4-(1-((1-(3-Cyano-4-(4-cyano-3-fluorophenyl)-5-(3-hydroxy-4-(2-hydroxy-2-methylpropoxy)phenyl)pyridin-2-yl)piperidin-4-yl)amino)ethyl)phenyl)-N-hydroxyacrylamide formate]
0.59 nM	37 nM	6.02 nM	410 nM	Cc1noc2cc(-c3cnc(N4CCC(NCc5ccc(/C=C/C(=O)NO)cn5)CC4)c(C#N)c3-c3ccc(C#N)c(F)c3)c(F)cc12 [Example 236, (E)-3-(6-(((1-(3-Cyano-4-(4-cyano-3-fluorophenyl)-5-(5-fluoro-3-methylbenzo[d]isoxazol-6-yl)pyridin-2-yl)piperidin-4-yl)amino)methyl)pyridin-3-yl)-N-hydroxyacrylamide formate]
2.36 nM	10.2 nM	11.6 nM	25.2 nM	N#Cc1ccc(-c2c(-c3ccc(Cl)c(O)c3)cnc(N3CCC(NCc4ccc(/C=C/C(=O)NO)cn4)CC3)c2C#N)cc1F [Example 239, (E)-3-(6-(((1-(5-(4-Chloro-3-hydroxyphenyl)-3-cyano-4-(4-cyano-3-fluorophenyl)pyridin-2-yl)piperidin-4-yl)amino)methyl)pyridin-3-yl)-N-hydroxyacrylamide formate]
2.44 nM	16 nM	18.4 nM	17.8 nM	COc1ccc(-c2cnc(N3CCC(NCc4ccc(/C=C/C(=O)NO)cc4)C(C)C3)c(C#N)c2-c2ccc(C#N)c(F)c2)cc1O (stereo not shown) [Example 242, (E)-3-(4-(((1-(3-Cyano-4-(4-cyano-3-fluorophenyl)-5-(3-hydroxy-4-methoxyphenyl)pyridin-2-yl)-3-methylpiperidin-4-yl)amino)methyl)-N-hydroxyacrylamide formate]
0.93 nM	5.38 nM	10.8 nM	14.3 nM	N#Cc1ccc(-c2c(-c3ccc(N4CCOCC4)c(O)c3)cnc(N3CCC(NCc4ccc(/C=C/C(=O)NO)cn4)CC3)c2C#N)cc1F [Example 246, (E)-3-(6-(((1-(3-Cyano-4-(4-cyano-3-fluorophenyl)-5-(3-hydroxy-4-morpholinophenyl)pyridin-2-yl)piperidin-4-yl)amino)methyl)pyridin-3-yl)-N-hydroxyacrylamide formate]
17 nM	1.08 nM	2.42 nM	1.93 nM	COc1ccc(-c2cnc(N3CCC(NCc4ccc(/C=C/C(=O)NO)cc4)CC3)c(C#N)c2-c2cnc(C#N)nc2)cc1O [Example 250, E)-3-(4-(((1-(3-Cyano-4-(2-cyanopyrimidin-5-yl)-5-(3-hydroxy-4-methoxyphenyl)pyridin-2-yl)piperidin-4-yl)amino)methyl) phenyl)-N-hydroxyacrylamide formate]
3.24 nM	1.03 nM	1.86 nM	4.32 nM	COc1ccc(-c2cnc(N3CCC(NCc4ccc(/C=C/C(=O)NO)cc4F)CC3)c(C#N)c2-c2ccc(C#N)nc2)cc1O [Example 252, (E)-3-(4-(((1-(3′,6-Dicyano-5′-(3-hydroxy-4-methoxyphenyl)-[3,4′-bipyridin]-2′-yl)piperidin-4-yl)amino)methyl)-3-fluorophenyl)-N-hydroxyacrylamide formate]
342 nM	0.3 nM	13.2 nM	5.25 nM	COC(=O)c1ccc(-c2c(-c3ccc(OC)c(O)c3)cnc(N3CCC(NCc4ccc(/C=C/C(=O)NO)cc4)CC3)c2C#N)cn1 [Example 253, Methyl (E)-3′-cyano-5′-(3-hydroxy-4-methoxyphenyl)-2′-(4-((4-(3-(hydroxyamino)-3-oxoprop-1-en-1-yl)benzyl)amino)piperidin-1-yl)-[3,4′-bipyridine]-6-carboxylate formate]
35.4 nM	0.41 nM	5.77 nM	4.69 nM	COc1ccc(-c2cnc(N3CCC(NCc4ccc(/C=C/C(=O)NO)cc4)CC3)c(C)c2-c2ccc(C#N)nc2)cc1O [Example 254, (E)-3-(4-(((1-(6-Cyano-5′-(3-hydroxy-4-methoxyphenyl)-3′-methyl-[3,4′-bipyridin]-2′-yl)piperidin-4-yl)amino)methyl)phenyl)-N-hydroxyacrylamide formate]
